Source: article PMC6283615, “Anilinoquinoline based inhibitors of trypanosomatid proliferation” (PLoS Neglected Tropical Diseases, 2018)
Converted amounts (≈) assume the structure as drawn. Like-named read-outs stand apart in the source and are kept apart here.

Experiments:
[1] = design: method as in PMID 29301082; details: lapatinib, Fig 1; cited from earlier work
P. fal. D6 = tested on: P. fal. D6; design: method as in PMID 26087257, PMID 29301082; details: previously reported; cited from earlier work
[2] = tested on: T. cruzi amastigote (Tulahuen strain expressing β-galactosidase); test: Intracellular T. cruzi assay in 3T3 cells (beta-galactosidase, 96 h); type: cell-based, Trypanosoma cruzi; details: Trypanosoma cruzi, TULAHUEN, read-out: T. cruzi amastigote EC50
Outline: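 3T3 cells in phenol-red-free DMEM with 2% FBS were infected with Tulahuen β-galactosidase trypomastigotes, 5×10^4 per well, and exposed to compounds from 50 μM in 1:2 serial dilutions, in triplicate. After 96 h at 37°C, 5% CO2, 500 μM CPRG in PBS with 0.5% NP40 was added for 4 h; absorbance was read at 590–595 nm.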

L. major amastigote = test: L. major intracellular amastigote luciferase assay in RAW 264.7 macrophages; type: cell-based, Leishmania major; details: Leishmania major, RAW264.7; intracellular amastigotes in RAW 264.7 macrophages, 96 h
Outline: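 Murine RAW 264.7 macrophages were infected overnight with luciferase-expressing L. major metacyclic promastigotes (MOI 1:10). Non-internalized parasites were washed off before 96 h compound exposure (0.5–10,000 ng/mL) at 37°C, 5% CO2.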

NIH/3T3 cells = test: Drug toxicity to 3T3 cells (Alamar Blue, 96 h); type: cell-based
Procedure: In a 96-well plate, 5×10^4 NIH/3T3 (ATCC CRL-1658) cells (purchased from ATCC) in DMEM without phenol red supplemented with 2% FBS were added to each well. Cells were incubated for 2 h to allow for attachment. Compounds were added in triplicates at 200 μM and in serial dilutions 1:2 and incubated at 37°C, 5% CO2 for 96 h. […] Following incubation, 10 μL of Alamar Blue (ThermoFisher) were added to each well and cells incubated at 37°C, 5% CO2 for 4 h. Absorbance was read at 590–595 nm.

HepG2 cells = test: Drug toxicity to HepG2 cells (MTT, 48 h); type: cell-based, human; details: tested concentration ranges based on compound solubility
Procedure: HepG2 cells were cultured in complete Minimal Essential Medium prepared by supplementing MEM with 0.19% sodium bicarbonate, 10% heat inactivated FBS, 2 mM L-glutamine, 0.1 mM MEM non-essential amino, 0.009 mg/mL insulin, 1.76 mg/mL bovine serum albumin, 20 units/mL penicillin–streptomycin, and 0.05 mg/mL gentamycin. HepG2 cells cultured in complete MEM were first washed with 1× Hank’s Balanced Salt Solution (Invitrogen #14175095), trypsinized using a 0.25% trypsin/EDTA solution, assessed for viability using trypan blue, and resuspended at 250,000 cells/mL. Using a Tecan EVO Freedom robot, 38.3 μL of cell suspension were added to each well of clear, cell culture-treated 384-well microtiter plates for a final concentration of 9570 liver cells per well, and plated cells were incubated overnight in 5% CO2 at 37°C. Drug plates were prepared with the Tecan EVO Freedom using sterile 96 well plates containing twelve duplicate 1.6-fold serial dilutions of each test compound suspended in DMSO. 4.25 μL of diluted test compound was then added to the 38.3 μL of media in each well providing a […] final dilution of compound. Compounds were tested from a range of 57 ng/mL to 10,000 ng/mL for all assays. Mefloquine was used as a plate control for all assays with a concentration ranging from 113 ng/mL to 20,000 ng/mL. After a 48 h incubation period, 8 μL of a 1.5 mg/mL solution of MTT diluted in complete MEM media was added to each well. All plates were subsequently incubated in the dark for 1 h at room temperature. After incubation, the media and drugs in each well was removed by shaking the plate over sink, and the plates were left to dry in a fume hood for 15 mins. Next, 30 μL of isopropanol acidified by addition of HCl at a final concentration of 0.36% was added to dissolve the formazan dye crystals created by reduction of MTT. Plates are put on a 3-D rotator for 15–30 mins. Absorbance was determined in all wells using a Tecan iControl 1.6 Infinite plate reader.

Aqueous solubility = type: physicochemical
[3] = Rat hepatocyte intrinsic clearance; type: in vitro ADME
LogD7.4 = type: physicochemical; details: pH 7.4
T. congolense IL3000 = test: In vitro drug sensitivity assay for T. congolense (72 h); type: cell-based; details: Trypanosoma congolense, IL3000 strain
Procedure: In vitro drug sensitivity assay for T. congolense (72 h): Compounds were tested in vitro for efficacy against the IL3000 T. congolense (drug sensitive) strain which was originally derived from the Trans Mara I strain, isolated from a bovine in 1966 in Kenya. […] Compounds were assayed in at least three separate, independent experiments and an 11-point dilution curve was used to determine the EC50 values. Bloodstream form trypanosomes were supported in HMI-9 medium containing 20% bovine serum and were incubated with test compounds for 69 h at 34°C in a humidified atmosphere containing 5% CO2. Thereafter, 10 μL of Resazurin dye (12.5 mg in 100 mL of phosphate-buffered saline, Sigma-Aldrich, Buchs, Switzerland) was added for an additional 3 h. Plates were read using a fluorescence plate reader (Spectramax, Gemini XS, Bucher Biotec, Basel, Switzerland) using an excitation wavelength of 536 nm and an emission wavelength of 588 nm.

[4] = Human plasma protein binding; type: in vitro ADME
[5] = Human liver microsome intrinsic clearance; type: in vitro ADME
[6] = tested on: T. vivax STIB 719 / ILRAD 560; test: Ex vivo drug sensitivity assay for T. vivax (48 h); type: cell-based; details: Trypanosoma vivax, STIB719, 48 h
Procedure: Ex vivo drug sensitivity assay for T. vivax (48 h): Compounds were tested ex vivo against the STIB 719 / ILRAD 560 T. vivax (drug sensitive) strain which originated from the Y486 strain, isolated from a naturally infected bovine in 1976 in Zaria, Nigeria. Compounds were assayed in at least three separate, independent experiments and an 11-point dilution curve was used to determine the EC50 values. Bloodstream form trypanosomes were harvested from a highly parasitaemic mouse (via cardiac puncture) and were incubated with test compounds for 45 h at 37°C in a humidified atmosphere containing 5% CO2, supported in HMI-9 medium containing 20% bovine serum. Thereafter, Resazurin dye was added to monitor trypanosome viability as described in the preceding section.

[7] = tested on: T. b. brucei (strain 427); test: T. b. brucei proliferation assay (PrestoBlue, 48 h); type: cell-based, Trypanosoma brucei brucei; details: Trypanosoma brucei
Outline: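 T. b. brucei strain 427, 2.5×10^3 per well in HMI-9, exposed to compounds from 50 μM in 1:2 dilutions, in triplicate. Incubated 48 h at 37°C, 5% CO2. PrestoBlue added for 4 h more, fluorescence read at ex 530/em 590 nm.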

Structure (SMILES)	solubility [1] [µM]	EC50 (P. fal. D6) [nM]	EC50 ([2]; NIH3T3, intracellular in 3T3 cells, 96 h) [nM]	EC50 (L. major amastigote) [nM]	3T3 TC50 (NIH/3T3 cells) [nM]	HepG2 TC50 (HepG2 cells) [nM]	solubility (Aqueous solubility) [µM]	hepatocyte CLint ([3]; hepatocytes) [µL/min/1e6 cells]	LogD7.4 (LogD7.4)	EC50 (T. congolense IL3000) [nM]	EC50 ([2]; NIH3T3, 96 h) [nM]	Human PPB [4] [%]	Human Liver Microsome CLint [5] [µL/min/mg]	EC50 [6] [nM]	EC50 [7] [nM]	Rat Hepatocyte CLint [3] [μL/min/10^6 cells]	fraction unbound ([4]; read-out: Human PPB (converted))	microsomal CLint ([5]; liver microsomes) [µL/min/mg]
CS(=O)(=O)CCNCc1ccc(-c2ccc3ncnc(Nc4ccc(OCc5cccc(F)c5)c(Cl)c4)c3c2)o1 [Lapatinib, lapatinib, reference compound]	12 (≈ 6.97 µg/mL)	470	13000	11000	–	–	–	–	–	–	–	–	–	–	–	–	–	–
COc1ccc(Nc2ccnc3cc(-c4cnc(N5CCN(C)CC5)nc4)ccc23)cc1Cl [Compound 23]	–	–	–	2000	4900	> 3000	< 1	45	4.3	140	620	98	170	40	–	–	–	–
CN1CCN(S(=O)(=O)c2ccc(-c3ccc4c(Nc5ccc(OCc6cccc(F)c6)c(Cl)c5)ccnc4c3)cc2)CC1 [Compound 1]	–	19	–	1600	–	–	0.3 (≈ 0.185 µg/mL)	–	–	140	730	–	–	40	79	20	< 0.01	140
